Experimental findings from ChEMBL document CHEMBL4725437, “P450s under Restriction (PURE) Screen Using HepaRG and Primary Human Hepatocytes for Discovery of Novel HBV Antivirals” (ACS Med Chem Lett, 2020) are described below.

The nature of data set [1]: Half life in human primary hepatocytes at 1 uM measured up to 3 hrs by LC-MS/MS analysis. The format is ADME, cell-based, Hepatocyte.
Data set [2] relates to Hepatitis B virus. As to the kind of experiment: (§1) Antiviral activity against Hepatitis B virus infected in human HepaRG cells assessed as inhibition of […] under CYP450 restriction pre-treated for 1 hr with CYP450 inhibitors ABT and SKF-525A on day 5 post-infection followed by removal of media and supplemented with fresh media containing diluted compound and further incubated for 3 days then followed by treatment for 1 hr with CYP450 inhibitors ABT and SKF-525A on day 8 post-infection followed by removal of media and supplemented with fresh media containing diluted compound and further incubated for 3 days in presence of 25 uM SKF-525A and measured on day 11 post-infection by chemiluminescence immunostaining assay. The format is functional, organism-based.

Data set [3] has as its system Hepatitis B virus. The experiment in a line: Antiviral activity against Hepatitis B virus infected in human HepaRG cells assessed as inhibition of […] measured on day 11 post-infection by chemiluminescence immunostaining assay. The format is functional, organism-based. The settings on record: 264 h.
The nature of data set [4]: Cytotoxicity against human HepaRG cells assessed as effect on cell viability. The format is cell-based.
The nature of data set [5]: Half life in human primary hepatocytes at 1 uM measured up to 3 hrs under CYP450 restriction in presence of CYP450 inhibitiors ABT and SKF-525A by LC-MS/MS analysis. The format is ADME, cell-based, Hepatocyte.
Data set [6] in a line: as §1, with “Ratio of EC50 for antiviral activity against” for “Antiviral activity against”, “assessed as fold change for inhibition of HBV DNA replication under normal condition to EC50 for inhibition of” for “assessed as inhibition of”. It is filed as functional. The settings on record: time 6 day.

pEC50: −log10 of the molar value. Where only a bound is given, the exact number is not on record here.

For `COc1ccccc1/C(Br)=C(\NC(=O)c1ccc([N+](=O)[O-])cc1)C(=O)N1CCCCC1`, the results for the half-life at 1 µM in data set [1] and in data set [5] were 0.0483 h and over 9.33 h, respectively. The pEC50 – broadly, −log10 of the EC50, conventionally taken in molar units – in data set [2] is 6.11; in data set [3], 5.24. Further, in data set [4], the CC50 – broadly, the concentration giving 50% cytotoxicity – was over 30 µM. In addition, the “Ratio EC50” value in data set [6] was 7.3.
Regarding `O=C(Nc1ccc(F)cc1)c1ccc(CF)c(S(=O)(=O)N2CCOCC(O)C2)c1` (stereo not given), the half-life (in general, how long it takes for the measured level to halve) at 1 µM in data set [1] was 0.342 h; in data set [5], 2.65 h. In addition, the negative-log EC50 (pEC50) in data set [2] was 6.70; in data set [3], 5.68. In data set [4], the CC50 is over 30 µM. Besides, the “Ratio EC50” value in data set [6] amounted to 11.
In the case of `COC(=O)C1=C(C)NC(c2ncc(F)cc2F)=N[C@H]1c1ccc(F)cc1Cl`, the results for the half-life at 1 µM in data set [1] and in data set [5] were 3.15 h and 7.18 h, respectively. Besides, the pEC50 in data set [2] was 6.59; in data set [3], 6.66.
The corresponding values for `CCOC(=O)C1=C(CN2CCOCC2)NC(c2nccs2)=NC1c1ccc(F)cc1Br` (stereo not given) are 0.128 h, over 9.33 h, 7.96 and 6.23.
